Results reported in article PMC10530836, “Synthesis, Molecular Docking, and Biological Evaluation of Novel Anthranilic Acid Hybrid and Its Diamides as Antispasmodics” (International Journal of Molecular Sciences, 2023).

System: K-562, LAMA-84, T-24, CCL-1 cell lines
Test: MTT cell viability assay, cell line panel
Assay type: cell-based
Conditions: leukemic cells LAMA-84 and K-562; read-out: IC50 estimates
Protocol: Based on the PASS online and the ProToxII in silico calculations, the evaluation of the cytotoxic activity of the compounds was the other object of our investigation. A series of MTT experiments were conducted to evaluate the in vitro effects of the tested compounds on cell growth in both normal (murine fibroblast CCL-1 cells) and malignant human cell lines of leukemic (K-562, LAMA-84) and epithelial (T-24 bladder carcinoma cells) origin.
To evaluate the biocompatibility of the hybrid compounds, their in vitro antiproliferative activity was assessed in a panel of human malignant cell lines of different origin (K-562 and LAMA-84 suspension-growing myeloid leukemia cells, positive for the Philadelphia chromosome, and the urothelial bladder carcinoma cell line T-24 of adherent type). Non-malignant murine fibroblast cells (CCL-1) were also used as a screening platform. […]
The effects of the newly synthesized anthranilic derivatives on cell viability were measured using a validated colorimetric assay for evaluating cell viability, known as the Mosmann MTT method. […] The latter was dissolved in isopropyl alcohol solution containing 5% formic acid prior to absorbance measurement at 550 nm. Collected absorbance values were blanked against MTT and isopropanol solution and normalized to the mean value of untreated control (100% cell viability).

IC50: 30 to 60 µM
SMILES: O=C(Nc1ccccc1C(=O)NCCc1cccc(Cl)c1)c1ccccc1 [Compound 4b, 2-benzamido-N-(3-chlorophenethyl)benzamide]
